System: E-selectin-IgG chimera
Conditions: 5 mM EDTA; shear stress 1 dyn/cm^2
Protocol: Cells (10^6/ml) were perfused at room temperature through the chamber at a shear stress of 1 dyn/cm^2 in binding medium alone or in the presence of 5 mM EDTA (Erg+EDTA). The number of cells which accumulated and maintained rolling at the end of 1 min of perfusion in two microscopic fields was determined as described in materials and methods. […] After 1 min perfusion, adherent cells were subjected to an abrupt 5-fold increase of shear stress and the number of cells that remained bound for at least 5 sec after the increase of shear was determined. The mean number +/− range of cells accumulated at 1 dyn/cm^2 and of accumulated cells remaining stably bound at 5 dyn/cm^2 on two fields of view are shown for the E48^lo and E48^hi cells. […] Data are representative of four independent experiments.
Cultured IUC cells grown as monolayers were harvested by a 10 min incubation with H/H medium (Hanks Balanced Salt Solution, HBSS (Sigma Israel Chemicals Ltd., Rehovot, Israel), containing BSA (2 mg/ml, fraction V, Sigma) and 10 mM HEPES, pH 7.4), supplemented with 5 mM EDTA at 37 Washed cells were resuspended in the same medium at a concentration of 1×10^7 cells/ml and kept at room temperature until use. Cells were diluted 20 fold into binding medium (H/H supplemented with 2 mM Ca^2+) and immediately perfused through the flow chamber. […]

O=C(O)CN(CCN(CC(=O)O)CC(=O)O)CC(=O)O [EDTA]
adhesive interactions of E48^hi cells with E-selectin coated substrate: eliminated

Reference: patent publication US20030129190A1, “FX activity in cells in cancer, inflammatory responses and diseases and in autoimmunity” (Ramot University Authority for Applied Research & …, priority 1999, published 2003)
